Laboratory results published in US8669256B2, “Substituted thieno[2,3-b]pyrazine compounds as modulators of B-Raf kinase activity” (Merck Sharp & Dohme B.V., priority 2010, dated 2014).
Where two headings read alike, the source gives them in different places.

Key:
[1] = biological target: T1, GST-tagged human recombinant active B-Raf (Δ1-415) (Homo sapiens, UniProt P15056); experiment: B-Raf kinase activity, IMAP coupled assay (B-Raf/MEK1/ERK2, fluorescence polarization); type: biochemical; conditions: bounds also given as pIC50 (>6, >7, >8); 60 min pre-incubation with compound, ATP 50 μM; read-out: IC50, B-Raf IMAP assay
T1 construct: GST; purchased Upstate/Millipore
T1 sequence (P15056 416-766, stated change not applied): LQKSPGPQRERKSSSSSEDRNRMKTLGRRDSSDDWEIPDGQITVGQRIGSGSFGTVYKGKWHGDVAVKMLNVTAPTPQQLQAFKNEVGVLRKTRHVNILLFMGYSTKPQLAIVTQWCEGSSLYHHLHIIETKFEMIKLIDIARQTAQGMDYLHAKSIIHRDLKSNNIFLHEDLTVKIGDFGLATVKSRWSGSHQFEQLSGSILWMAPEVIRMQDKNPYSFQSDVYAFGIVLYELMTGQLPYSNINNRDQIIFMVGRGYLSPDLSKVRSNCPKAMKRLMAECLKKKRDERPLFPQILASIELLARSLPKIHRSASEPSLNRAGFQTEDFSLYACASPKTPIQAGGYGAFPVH
Description: (§1) In another assay the B-Raf kinase activity can be determined by using an IMAP assay (Immobilized Metal Assay for Phosphochemicals-based coupled assay). IMAP is a homogeneous fluorescence polarization (FP) assay based on affinity capture of phosphorylated peptide substrates. IMAP uses fluorescein-labeled peptide substrates that, upon phosphorylation by a protein kinase, bind to so called IMAP nanoparticles, which are derivatized with trivalent metal complexes. Such binding causes a change in the rate of the molecular motion of the peptide, and results in an increase in the FP value observed for the fluorescein label attached to the substrate peptide. In such an assay, B-Raf phosphorylates unactive MEK1. The phosphorylated MEK1 is capable of phosphorylating ERK2, which subsequently phosphorylates the fluorescein-labeled peptide substrate.
Determination of B-Raf Kinase Activity using an IMAP Assay
as §1, with “Inhibition of” for “In another assay the”, “was measured” for “can be determined by”, “Immobilized” for “IMAP assay (Immobilized”, “assay (IMAP).” for “assay).”, “this” for “such an”
Enzymes, substrate and ATP were diluted at all steps in Kinase Reaction buffer (10 mM Tris-HCl, 10 mM MgCl2, 0.01% Tween-20, 0.05% NaN3 pH 7.2, 1 mM DTT). The final volume at the kinase reaction step of the assay in the 384-well plate was 20 μl. The concentrations within brackets are final concentrations in the assay. B-Raf (GST-tagged human recombinant active B-Raf (Δ1-415), Upstate/Millipore; 0.2 U/ml) was pre-incubated with compounds or DMSO (1% final concentration) for 60 minutes at room temperature in the dark. Thereafter, MEK 1 (GST-tagged human recombinant unactive MEK1 (full-length); 64 ng/ml), ERK2 (GST-tagged human recombinant unactive ERK2 (full-length); 600 ng/ml), peptide substrate (Erktide, Molecular Devices; 50 nM) and ATP (50 μM) were added to the wells and the mix was incubated for another 60 minutes at 30° C. in the dark. Then, IMAP progressive binding buffer (75% 1× buffer A, 25% 1× buffer B, 1:900 Progressive Binding Reagent; Molecular Devices) was added followed by an incubation step of 60 minutes at room temperature in the dark. Finally, the FP signal was read on an Envision Multilabel reader (Perkin Elmer).

[2] = system: phosphorylation of ERK1/2 in A375 cells containing mutant B-Raf (V600E); experiment: Phospho-ERK FACE assay in A375 (B-Raf mutated) melanoma cell line; type: cell-based; conditions: Homo sapiens, A-375, A375 cells, 2 hours incubation, read-out: IC50, A375 melanoma phospho-ERK assay
Method: The B-Raf activity can also be determined in a B-Raf mutated melanoma cell line, such as the A375 cell line. Inhibition of phosphorylation of ERK1/2 can be measured using a Fast Activated Cell-based ELISA (FACE) from Active Motif (Carlsbad, U.S.A., CA). E.g. A375 cells, which are cells containing a mutant form of B-Raf (V600E) and thus contain high levels of phosphorylated ERK, can be incubated with Raf inhibitors. Then cells can be incubated with anti-phospho-ERK antibody and subsequently with horse radish peroxidase (HRP)-labeled secondary antibody. Finally, chemiluminescence reagents can be added, which react with HRP, to give a luminescence signal.
Determination of B-Raf Activity Using a A375 (B-Raf mutated) Melanoma Cell Line (Phospho-ERK FACE Assay)
Inhibition of phosphorylation of ERK1/2 was measured using a Fast Activated Cell-based ELISA (FACE) from Active Motif (Carlsbad, U.S.A., CA). Briefly, A375 cells, which are cells containing a mutant form of B-Raf (V600E) and thus contain high levels of phosphorylated ERK, were incubated for 2 hours with Raf inhibitors. Then, cells were fixed with paraformaldehyde, washed and following quenching and blocking, incubated with anti-phospho-ERK antibody, and as a control, on a separate plate, with ERK antibody. After washing and removal of the primary antibodies, the fixed cells were incubated with horse radish peroxidase (HRP)-labeled secondary antibody. Finally, chemiluminescence reagents were added, which react with HRP, to give a luminescence signal.
Detailed protocol: A375 cells were cultured in DMEM/F12 (Dulbecco's Modified Eagle Medium Nutrient Mixture F-12) (Invitrogen), supplemented with 10% fetal bovine serum (FBS) (Biowhittaker), 100 U/ml penicillin G and 100 μg/ml streptomycin (Gibco). For the phospho ERK assay, cells were seeded at a density of 15,000 cells/well in 100 μl culture medium in 96-well plates and incubated in a humidified atmosphere at 5% CO2 and 37° C. After 24 hours, cells were washed with DMEM/F12 supplemented with 0.1% FBS (assay medium 120 μl of assay medium was added and the plates were incubated overnight in a humidified atmosphere at 5% CO2 and 37° C. The next day, the assay medium was removed and compounds diluted in assay medium were added to the cells. Final DMSO concentration in the assay was 1%. After 2 hours incubation, cells were fixed by replacing the assay medium with 100 μl of 4% formaldehyde (Bio-Connect, Huissen, The Netherlands) in PBS. After 20 minutes of incubation at room temperature, cells were washed three times with 200 μl wash buffer (0.1% (vol/vol) Triton X-100 in PBS from the FACE kit) followed by an incubation of 20 minutes with 100 μl quenching buffer, containing 1% (vol/vol) hydrogen peroxide (Thermo Fisher Scientific) and 0.1% (vol/vol) sodium azide (Sigma-Aldrich) in phosphate-buffered saline. Cells were washed two times with wash buffer, incubated for 1 hour with 100 μl antibody blocking buffer from the kit and washed two times again. 40 μl of diluted antibody against phosphorylated ERK1/2 (1:500 from the FACE kit) was added and incubated overnight at 4° C. The phospho-ERK antibody has been raised against a synthetic phospho-peptide corresponding to residues Thr202 and Tyr204 of human ERK1 and Thr185 and Tyr187 of human ERK2. For the detection of total ERK, antibody against ERK1 and ERK2 (1:500 from the FACE kit) was added. The excessive primary antibody was washed out, and 100 μl diluted HRP-conjugated anti-rabbit IgG (1:2000 from the FACE kit) was added and incubated for 1 hour at room temperature. Secondary antibody was removed and cells were washed 3 times with wash buffer and twice with PBS. 50 μl per well of FACE chemiluminescent working solution was added. Chemiluminescence was measured on an Envision Multilabel reader.

[3] = class given as below 100 nM (pIC50>7)
[4] = between 1 μM and 100 nM (6<pIC50<7)
[5] = class between 10 μM and 1 μM (5<pIC50<6)

| Compound | IC50 [1] [nM] | IC50 [2, 3] [nM] | IC50 [2, 4] [nM] | IC50 [2, 5] [nM] |
| --- | --- | --- | --- | --- |
| Cc1ccc(NC(=O)c2cccc(C(C)(C)C#N)c2)cc1NC(=O)c1cc2nc(N(C)C)cnc2s1 [Example 15, N-(5-(3-(2-cyanopropan-2-yl)benzamido)-2-methylphenyl)-2-(dimethylamino)thieno[2,3-b]pyrazine-6-carboxamide] | < 10 | < 100 | – | – |
| Cc1ccc(NC(=O)c2cccc(C(C)(C)C#N)c2)cc1NC(=O)c1cc2nc(NC(C)C)cnc2s1 [Example 16, N-(5-(3-(2-cyanopropan-2-yl)benzamido)-2-methylphenyl)-2-(isopropylamino)thieno[2,3-b]pyrazine-6-carboxamide] | < 100 | < 100 | – | – |
| CNc1cnc2sc(C(=O)Nc3cc(NC(=O)c4cccc(C(C)(C)C#N)c4)ccc3C)cc2n1 [Example 17, N-(5-(3-(2-cyanopropan-2-yl)benzamido)-2-methylphenyl)-2-(methylamino)thieno[2,3-b]pyrazine-6-carboxamide] | < 100 | – | 100 to 1000 | – |
| Cc1ccc(NC(=O)c2cccc(C(C)(C)C#N)c2)cc1NC(=O)c1cc2nc(NCc3ccncc3)cnc2s1 [Example 18, N-(5-(3-(2-cyanopropan-2-yl)benzamido)-2-methylphenyl)-2-(pyridin-4-ylmethylamino)thieno[2,3-b]pyrazine-6-carboxamide] | < 10 | – | 100 to 1000 | – |
| CC(=O)c1cnc2sc(C(=O)Nc3cc(NC(=O)c4cccc(C(C)(C)C#N)c4)ccc3C)cc2n1 [Example 19, 2-acetyl-N-(5-(3-(2-cyanopropan-2-yl)benzamido)-2-methylphenyl)thieno[2,3-b]pyrazine-6-carboxamide] | < 100 | – | – | 1000 to 10000 |
| Cc1ccc(NC(=O)c2cccc(C(C)(C)C#N)c2)cc1NC(=O)c1cc2nc(-c3cccnc3)cnc2s1 [Example 20, N-(5-(3-(2-cyanopropan-2-yl)benzamido)-2-methylphenyl)-2-(pyridin-3-yl)thieno[2,3-b]pyrazine-6-carboxamide] | < 10 | < 100 | – | – |
| Cc1ccc(NC(=O)c2cccc(C(C)(C)C#N)c2)cc1NC(=O)c1cc2nc(-c3ccncc3)cnc2s1 [Example 21, N-(5-(3-(2-cyanopropan-2-yl)benzamido)-2-methylphenyl)-2-(pyridin-4-yl)thieno[2,3-b]pyrazine-6-carboxamide] | < 100 | < 100 | – | – |
| Cc1cnc2sc(C(=O)Nc3cc(NC(=O)c4cccc(C(C)(C)C#N)c4)ccc3C)cc2n1 [Example 24, N-(5-(3-(2-cyanopropan-2-yl)benzamido)-2-methylphenyl)-2-methylthieno[2,3-b]pyrazine-6-carboxamide] | < 10 | – | 100 to 1000 | – |
| Cc1ccc(NC(=O)c2ccnc(N3CCCC3)c2)cc1NC(=O)c1cc2nccnc2s1 [Example 26, N-(2-methyl-5-(2-(pyrrolidin-1-yl)isonicotinamido)phenyl)thieno[2,3-b]pyrazine-6-carboxamide] | < 100 | – | – | 1000 to 10000 |
| Cc1ccc(NC(=O)c2cccc(C(C)(C)C#N)c2)cc1NC(=O)c1cc2nccnc2s1 [Example 27, N-(5-(3-(2-cyanopropan-2-yl)benzamido)-2-methylphenyl)thieno[2,3-b]pyrazine-6-carboxamide] | < 10 | – | 100 to 1000 | – |
| COc1ccc(C(=O)Nc2ccc(C)c(NC(=O)c3cc4nccnc4s3)c2)cc1C(F)(F)F [Example 28, N-(5-(4-methoxy-3-(trifluoromethyl)benzamido)-2-methylphenyl)thieno[2,3-b]pyrazine-6-carboxamide] | < 100 | – | 100 to 1000 | – |
| Cc1ccc(NC(=O)c2cccc(C3(C#N)CC3)c2)cc1NC(=O)c1cc2nccnc2s1 [Example 29, N-(5-(3-(1-cyanocyclopropyl)benzamido)-2-methylphenyl)thieno[2,3-b]pyrazine-6-carboxamide] | < 10 | – | 100 to 1000 | – |
| Cc1ccc(NC(=O)c2cc(C(C)(C)C)n[nH]2)cc1NC(=O)c1cc2nccnc2s1 [Example 30, N-(5-(3-tert-butyl-1H-pyrazole-5-carboxamido)-2-methylphenyl)thieno[2,3-b]pyrazine-6-carboxamide] | < 100 | – | 100 to 1000 | – |
| Cc1ccc(NC(=O)c2ccc(C)c(C(F)(F)F)c2)cc1NC(=O)c1cc2nccnc2s1 [Example 31, N-(2-methyl-5-(4-methyl-3-(trifluoromethyl)benzamido)phenyl)thieno[2,3-b]pyrazine-6-carboxamide] | < 100 | – | 100 to 1000 | – |
| Cc1ccc(NC(=O)c2cc(F)cc(C(F)(F)F)c2)cc1NC(=O)c1cc2nccnc2s1 [Example 32, N-(5-(3-fluoro-5-(trifluoromethyl)benzamido)-2-methylphenyl)thieno[2,3-b]pyrazine-6-carboxamide] | < 100 | – | – | 1000 to 10000 |
| Cc1ccc(NC(=O)c2cccc(OC(F)(F)F)c2)cc1NC(=O)c1cc2nccnc2s1 [Example 35, N-(2-methyl-5-(3-(trifluoromethoxy)benzamido)phenyl)thieno[2,3-b]pyrazine-6-carboxamide] | < 100 | – | – | 1000 to 10000 |
| Cc1ccc(NC(=O)c2cccc(C3(C#N)CCOCC3)c2)cc1NC(=O)c1cc2nccnc2s1 [Example 36, N-(5-(3-(4-cyanotetrahydro-2H-pyran-4-yl)benzamido)-2-methylphenyl)thieno[2,3-b]pyrazine-6-carboxamide] | < 100 | – | – | 1000 to 10000 |
